Our source for the pKa and Ki values is ChEMBL document CHEMBL1157143, “Modeling and synthesis of novel tight-binding inhibitors of cytochrome P450 2C9” (Bioorg Med Chem, 2008).

The nature of series [1]: Dissociation constant, pKa of the compound.
The target of series [2] is Cytochrome P450 2C9 (Homo sapiens, UniProt P11712). The series is described as follows: Binding affinity to CYP2C9.
Chain of Cytochrome P450 2C9 (P11712 whole entry): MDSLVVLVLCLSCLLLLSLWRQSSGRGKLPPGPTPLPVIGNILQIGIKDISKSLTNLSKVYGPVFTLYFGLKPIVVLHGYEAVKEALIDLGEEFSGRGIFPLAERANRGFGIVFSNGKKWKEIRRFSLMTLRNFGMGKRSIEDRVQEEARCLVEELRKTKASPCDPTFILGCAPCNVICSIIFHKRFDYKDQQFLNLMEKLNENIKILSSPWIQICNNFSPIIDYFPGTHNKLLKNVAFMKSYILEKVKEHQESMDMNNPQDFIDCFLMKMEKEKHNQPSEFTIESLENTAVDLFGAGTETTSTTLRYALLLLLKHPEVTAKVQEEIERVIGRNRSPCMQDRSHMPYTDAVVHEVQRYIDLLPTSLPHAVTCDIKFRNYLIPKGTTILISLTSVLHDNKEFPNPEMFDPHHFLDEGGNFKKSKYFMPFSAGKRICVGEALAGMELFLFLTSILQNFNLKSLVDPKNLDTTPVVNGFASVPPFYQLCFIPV

In general, pKa refers to the negative logarithm of the acid dissociation constant. Low readings indicate a group that gives up its proton readily, high ones a group that holds its proton tightly. Usually Ki stands for a dissociation constant, usually derived from enzyme kinetics or from competition with a known ligand. Low readings indicate higher affinity, high ones lower affinity. In series [1], `Cc1oc2ccccc2c(=O)c1C(=O)c1ccc(O)cc1` returned a pKa of 7.74. This compound yielded a Ki in series [2] of 6740 nM.

In series [2], `CCCc1oc2ccccc2c(=O)c1C(=O)c1ccc(OC)cc1` returned a Ki of 3120 nM. This lies in the single-digit micromolar range.

`COc1ccc(C(=O)c2c(C)oc3ccccc3c2=O)cc1` returned a Ki in series [2] of 5930 nM. This Ki lies about 1.9-fold higher than the previous one.

The compound `CCc1oc2ccccc2c(=O)c1C(=O)c1ccc(O)cc1` came in with a pKa in series [1] of 7.74. In series [2], this compound yielded an inhibitory constant (Ki) of 1420 nM.

Turning to `CCc1oc2ccccc2c(=O)c1C(=O)c1cc(Br)c(O)c(Br)c1`, in series [1], the pKa was found to be 4.72.

As for `CCCc1oc2ccccc2c(=O)c1C(=O)c1ccc(O)cc1`, the pKa in series [1] turned out to be 7.74. In series [2], this compound showed a Ki of 656 nM.

In turn, `CCCc1oc2ccccc2c(=O)c1C(=O)c1cc(I)c(O)c(I)c1` displayed a pKa in series [1] of 4.89. In series [2], this compound had an inhibition constant Ki of 4.2 nM.

In series [2], `CCCc1oc2ccccc2c(=O)c1C(=O)c1cc(I)c(OC)c(I)c1` gave an inhibition constant (Ki) of 44.3 nM.

Consider `CCc1oc2ccccc2c(=O)c1C(=O)c1ccc(OC)cc1`, for which the inhibitory constant (Ki) in series [2] came out at 6480 nM.

Regarding `Cc1oc2ccccc2c(=O)c1C(=O)c1cc(I)c(O)c(I)c1`, in series [1], the pKa amounted to 4.89. In series [2], this compound showed a Ki of 41 nM.

As for `CCc1oc2ccccc2c(=O)c1C(=O)c1ccncc1`, the Ki in series [2] turned out to be 4870 nM. That is a single-digit micromolar value.

In turn, `CCc1oc2ccccc2c(=O)c1C(=O)c1cc(I)c(O)c(I)c1` showed a pKa in series [1] of 4.89. In series [2], this compound came in with an inhibition constant Ki of 23 nM.
